Molecules are shown by their SMILES.

This assay relates to 5×FAD transgenic mice. Nature of the assay: Morris water maze test of spatial learning and memory in 5×FAD transgenic mice. The format is in vivo. An excerpt: Animals: 5×FAD transgenic mice, male, SPF grade, initial body weight of 25-35 g; provided by Zhang Cheng Laboratory of Peking University. Male 5×FAD transgenic mice produced by breeding 5×FAD transgenic mice with WT mice and their littermate WT mice were used for the experiments, weighing 27-35 g. The 5×FAD transgenic mice were used as acute AD mouse model, the mice could develop AD pathological features at two or three months old, and behavioral changes appeared at five months old. The mice were administered at four months old, and after continuous administration for two months, the spatial learning and memory abilities of the mice were tested by water maze.
(1) Administration: 4-month-old mice were divided into four groups, namely WT (physiological saline), 5×FAD (physiological saline), 5×FAD (YL-IPA08, 0.3 mg/kg), 5×FAD (YL-IPA08, 1 mg/kg), intragastrically (i.g.) administered, once a day. After continuous administration for 8 weeks, the spatial learning and memory ability of the mice were tested by Morris water maze.
(2) Morris water maze test: The Morris water maze test was performed after 8 weeks of the administration of YL-IPA08 (0.3, 1 mg/kg). The water maze consisted of a circular stainless steel pool with a diameter of 120 cm and a depth of 60 cm, and the diameter of the escape platform was 10 cm. The day before the test, the mice were allowed to swim in the water maze for 30 s-60 s to acclimate to the environment. During the training, the mice were allowed to swim freely for 60 s to find the platform. If the mice found the hidden platform autonomously, they were allowed to stay there for 30 seconds, and then taken out. If the mice could not find the platform autonomously, they were guided onto the platform and allowed to stay there for 30 seconds, and then taken out. Training was performed twice a day for 5-7 days until the latency of WT mice to find the platform no longer decreased, and the latency, distance and path of the mice to find the hidden platform in the water maze were recorded. The test was performed 24 hours after the last training session, in which the platform was removed, and the mice were allowed to explore freely in the water maze for 1 minute, and the number of times the mice crossed the position of the platform and the time they stayed in the quadrant of the platform were recorded. There were 8-10 mice per group.
All data were presented by x±SEM. Data statistics and analysis were performed using GraphPad Prism 6.0. Significant differences were assessed by unpaired Student's t test, one-way ANOVA or two-way ANOVA followed by Tukey's multiple comparison test.

The mark [1] stands for this setting: 5×FAD transgenic mice, YL-IPA08 0.3, 1 mg/kg i.g. once a day for 8 weeks, 6 days training, vs solvent control group of 5×FAD mice.

In the case of `CCN(Cc1ccccn1)C(=O)Cc1c(-c2ccc(Cl)c(Cl)c2)nc2cc(C)ccn12.Cl` [YL-IPA08, N-ethyl-N-(2-pyridylmethyl)-2-[2-(3,4-dichlorophenyl)-7-methyl-imidazo[1,2-a]pyridin-3-yl]-acetamide·hydrochloride], under “5×FAD mice, 0.3, 1 mg/kg i.g. once a day for 8 weeks, Morris water maze”, the “learning and cognitive impairment in 5×FAD mice (overall conclusion)” value is “can improve learning and cognitive impairment”. Moreover, the “average swimming speed (test period)” value (5×FAD transgenic mice, 0.3, 1 mg/kg i.g. once a day for 8 weeks, comparison of the mice in each group) is “not significantly different”. For the same compound, the “number of times the mice crossed the platform (test period)” value (5×FAD transgenic mice, 0.3, 1 mg/kg i.g. once a day for 8 weeks, test 24 hours after last training, platform removed, 1 minute, vs solvent control group) is “significantly higher”. Also, under setting [1], the “distance to find the platform (water maze training)” value is reported as “significantly shortened” and the “latency to find the platform (water maze training)” value is listed as “significantly shortened”.

The record behind these values is patent US20230293537A1, “USE OF ACETAMIDE DERIVATIVE IN PREVENTION AND TREATMENT OF ALZHEIMER'S DISEASE” (ACADEMY OF MILITARY MEDICAL SCIENCES, priority 2020, published 2023).
